What was measured:
[1] = Particle size measurement (Dv90, volumetric distribution); format: physicochemical
Text: The size range of crystalline L-glufosinate ammonium monohydrate particles obtained by using the methods provided herein is convenient for use in formulations. In some embodiments, the crystals are mixed with water and other formulation ingredients to form an herbicidal product. In some embodiments, 90% of the crystalline L-glufosinate ammonium particles are less than about 350 microns as determined by volumetric distribution measurement basis (i.e., “Dv90”). For example, the Dv90 of the particles can be less than about 350 microns or less than about 300 microns or less than about 250 microns or less than about 200 microns or less than about 150 microns or less than about 125 microns or less than about 100 microns or less than about 75 microns or less than about 50 microns or less than about 25 microns. […]
L-glufosinate ammonium starting material (50 g, 77% total L-glufosinate ammonium, 7.3% ammonium glutamate) was added to 35.0 g of 45:55 (w:w) methanol:water. […] The crystals were analyzed by X-ray powder diffraction and the resulting pattern was consistent with that of L-glufosinate ammonium monohydrate Form B, however several peaks consistent with L-glufosinate ammonium monohydrate Form A were present.

[2] = Hygroscopicity of solid L-glufosinate forms in contact with ambient air; format: physicochemical; conditions: contact with ambient air in the laboratory; compared with non-crystalline forms
Text: L-glufosinate produced in a stable solid form is highly desirable for commercial manufacture. Some forms of solid L-glufosinate are hygroscopic, and therefore extra measures must be taken to eliminate contact between these solid L-glufosinate forms and water vapor. […] Several crystalline forms of L-glufosinate are disclosed in WO 2019/018406, and two of these forms (indicated as “Form A” and “Form B”) have now been identified as monohydrate crystals of L-glufosinate ammonium.

plants = conditions: Ruhland et al. (2002); cited from earlier work
[3] = system: glutamine synthetase enzyme in plants; conditions: leads to plant death; cited from earlier work
[4] = DAAO enzyme kinetics assay (HRP/TBHBA/4-AAP dye, Michaelis Menten, Vmax); format: biochemical; conditions: 30° C., 460 nm, measurement at 15 minutes, final DAAO 5 μg/mL, racemic glufosinate substrate, pH 8.0 potassium phosphate buffer
Experimental: The following dye stock solutions were prepared: a 20 mg/mL stock solution of 2,4,6-tribromo-3-hydroxybenzoic acid (TBHBA) in DMSO; and a 100 mg/mL stock solution of 4-aminoantipyrine (4-AAP) in water. The following enzyme stock solution was prepared: a 1 mg/mL stock solution of horseradish peroxide (HRP) type 6 in a pH 8.0 potassium phosphate buffer. The following substrate stock solution was prepared: varying concentrations of racemic glufosinate in a pH 8.0 potassium phosphate buffer such that the initial reaction concentrations of racemic glufosinate were 0, 1, 10, 100, 250, and 500 nM. DAAO enzymes were made in E. coli which were lysed and the cell free extracts freeze dried. Enzyme amounts in the cell free extracts were quantified using SDS-PAGE and staining by Coomassie Blue.
Mix A is a combination of the substrate and HRP enzyme. Solutions were prepared for each substrate concentration to be assayed using reaction buffer. The solutions were two times the final substrate concentration and 0.2 mg/mL for the HRP solution.
Mix B is a dye mixture. To 5 mL of reaction buffer was added 120 μL of TBHBA solution and 400 μL of 4-AAP solution.
Mix C is an enzyme mixture. A 0.02 mg/mL solution of DAAO in reaction buffer was prepared. […]
The enzyme kinetics were measured as described above, plotted on a Michaelis Menten graph, and used to calculate Vmax.

CP(=O)(O)CC[C@H](N)C(=O)O.N.O [L-glufosinate ammonium monohydrate] showed a Dv90 particle size ([1]; Example 9, crystallized with 0.4 M ammonium hydroxide) of 70.7 microns and a Dv90 particle size ([1]; Example 10, crystallized without ammonium hydroxide) of 102 microns.

For CP(=O)(O)CC[C@H](N)C(=O)O.N.O [Form A, L-glufosinate ammonium monohydrate], the hygroscopicity [2] was “low hygroscopicity”.

For CP(=O)(O)CC[C@H](N)C(=O)O [crystalline L-glufosinate P free acid, L-glufosinate P free acid], the hygroscopicity [2] was “significantly lower”.

In the case of CP(=O)(O)CC[C@H](N)C(=O)O [amorphous L-glufosinate solids, L-glufosinate], the hygroscopicity [2] is reported as “particularly hygroscopic”.

For CP(=O)(O)CC[C@@H](N)C(=O)O [D-glufosinate], the herbicidal activity (plants) is listed as “essentially no herbicidal activity”.

In the case of CP(=O)(O)CC[C@H](N)C(=O)O [L-glufosinate], the “inhibition of glutamine synthetase enzyme” value [3] is given as “inhibits”.

B1: Mut846: variant DAAO enzyme, sequence provided in SEQ ID NO: 2 (protein)
chain: MASPSNKQIVVLGAGVIGLTTAVKIQEQRGYQVTIIAEILPSDPKSIRYTSHWAGAHHVSLAGEDKLQARVDQETFGVMWEMSAPGGEAEGCFLRQKQVEYYCDKQADPHPLEHMPDFRRLDENSLIPNTVAGIGFTTLTIDTPIYLNYLLSRFLARGGAIVRGSVQHISQVVDGGARVFTGSKSAGVPVDAVIVCAGIGARFLGGVEDKDVYPIRGQTVLLRAPWIRFGRTMSSKDGLYTYIIPRRSGDVIVGGIKVPNDWYPTPRPETTQDILKRGLALCPELAPQSIRDQREPTVDDLRPLVIEEGCGLRPGRKGGIRLEVEWYAKTDGQAPKVPIVHNYGHGGAGFQASWGSASVALELLEKALAQARLAM
modifications: Rhodosporidium toruloides
With B1 the Vmax [4] was 5.54 µmol/min/mg.

From patent US12234254B2, “Methods for producing crystalline L-glufosinate ammonium monohydrate” (BASF SE, priority 2019, dated 2025)
